The values below come from patent US20230277494A1, “TRANS-CROCETIN COMPOSITIONS AND TREATMENT REGIMENS” (priority 2020, published 2023).

The term Cmax denotes the highest concentration seen after dosing.

The conditions of data set [1]: human, in vivo; cited from earlier work.
The conditions of data set [2]: mouse, in vivo, iv.
The nature of data set [3]: Phase 2 clinical study of liposomal trans-crocetin, pharmacokinetics. The conditions noted are these: human, in vivo. The source says:
A phase 2 clinical study was initiated to assess the safety and efficacy of liposomal trans-crocetin in patients with acute respiratory distress syndrome due to COVID-19 disease. This was an open label phase II study of treatment with liposomal trans-crocetin in patients who experience severe acute respiratory distress syndrome (ARDS) and were receiving artificial respiratory support due to COVID-19. The purpose of this study was to evaluate the improvement in PaO2/FiO2 by more than 25% in two cohorts of patients treated liposomal trans-crocetin. In the first cohort, patients received trans-crocetin at a dose of 0.25 mg/kg administered as intravenous (IV) bolus every 3 hours. The second cohort was treated by a liposomal formulation containing trans-crocetin. […] Pharmacokinetic assessment was carried out to identify an optimal dose and schedule. […] Secondary outcome measures included (1) proportion of patients with a PaO2/FiO2 ratio above 200 mm Hg (Time Frame: 24, 48 and 72 hours), and (2) all cause mortality (Time Frame: 28 days).
The primary purpose of this study was to determine a safe dosing regimen of liposomal trans-crocetin and to assess preliminary efficacy as measured by improvement in PaO2/FiO2 by more than 25% in patients treated with liposome encapsulated trans-crocetin, as well as safety and the pharmacokinetic profile of liposome encapsulated trans-crocetin. […]

For data set [4] the following is noted: diffusion of oxygen in plasma, FIG. 12; cited from earlier work.

For the compound `CC(/C=C/C=C(\C)C(=O)[O-])=C\C=C\C=C(C)\C=C\C=C(/C)C(=O)[O-].[Na+].[Na+]` [STC free drug, sodium trans-crocetinate], the “safety in clinical trials” value in data set [1] was “no safety concerns”. The Cmax in data set [2] worked out at 360 µg/mL.

Consider `CC(/C=C/C=C(\C)C(=O)O)=C\C=C\C=C(C)\C=C\C=C(/C)C(=O)O` [trans-crocetin], for which the “AUC and Cmax across a wide range of body weights” value in data set [3] is “stable levels”. For the same compound, the “improvement in diffusion capacity” value in data set [4] is on record as 30%.
